Experimental data as given in ChEMBL document CHEMBL1153245, “A profile of the in vitro anti-tumor activity of imidazolium-based ionic liquids” (2010).

What was measured:
Type in all cases: functional
[1] = system: MDA-MB-231; assay: Anticancer activity against human MDA-MB-231 cells after 48 hrs by sulforhodamine B assay; conditions: Homo sapiens, MDA-MB-231, 48 h
[2] = system: M14; assay: Anticancer activity against human M14 cells after 48 hrs by sulforhodamine B assay; conditions: Homo sapiens, M14, 48 h
[3] = system: SK-MEL-5; assay: Anticancer activity against human SK-MEL-5 cells assessed cell growth at 10 uM after 48 hrs by sulforhodamine B assay relative to control
[4] = system: NCI/ADR-RES; assay: Anticancer activity against human NCI/ADR-RES cells after 48 hrs by sulforhodamine B assay; conditions: Homo sapiens, NCI/ADR-RES, 48 h
[5] = system: UACC-257; assay: Anticancer activity against human UACC257 cells assessed cell growth at 10 uM after 48 hrs by sulforhodamine B assay relative to control
[6] = system: NCI-H226; assay: Anticancer activity against human NCI-H226 cells assessed cell growth at 10 uM after 48 hrs by sulforhodamine B assay relative to control
[7] = system: NCI-H460; assay: Anticancer activity against human NCI-H460 cells assessed cell growth at 10 uM after 48 hrs by sulforhodamine B assay relative to control
[8] = system: HOP-92; assay: Anticancer activity against human HOP92 cells after 48 hrs by sulforhodamine B assay; conditions: Homo sapiens, HOP-92, 48 h
[9] = system: TK-10; assay: Anticancer activity against human TK10 cells assessed cell growth at 10 uM after 48 hrs by sulforhodamine B assay relative to control
[10] = system: OVCAR-5; assay: Anticancer activity against human OVCAR5 cells assessed cell growth at 10 uM after 48 hrs by sulforhodamine B assay relative to control
[11] = system: SF-268; assay: Anticancer activity against human SF268 cells assessed cell growth at 10 uM after 48 hrs by sulforhodamine B assay relative to control
[12] = system: OVCAR-4; assay: Anticancer activity against human OVCAR4 cells after 48 hrs by sulforhodamine B assay; conditions: Homo sapiens, OVCAR-4, 48 h
[13] = system: 786-0; assay: Anticancer activity against human 786-0 cells after 48 hrs by sulforhodamine B assay; conditions: Homo sapiens, 786-0, 48 h
[14] = system: A549; assay: Anticancer activity against human A549 cells after 48 hrs by sulforhodamine B assay; conditions: Homo sapiens, A549, 48 h
[15] = system: COLO 205; assay: Anticancer activity against human COLO205 cells after 48 hrs by sulforhodamine B assay; conditions: Homo sapiens, COLO 205, 48 h
[16] = system: HOP-62; assay: Anticancer activity against human HOP62 cells assessed cell growth at 10 uM after 48 hrs by sulforhodamine B assay relative to control
[17] = system: LOX IMVI; assay: Anticancer activity against human LOXIMVI cells after 48 hrs by sulforhodamine B assay; conditions: Homo sapiens, LOX IMVI, 48 h
[18] = system: SK-MEL-2; assay: Anticancer activity against human SK-MEL-2 cells assessed cell growth at 10 uM after 48 hrs by sulforhodamine B assay relative to control
[19] = system: OVCAR-8; assay: Anticancer activity against human OVCAR8 cells after 48 hrs by sulforhodamine B assay; conditions: Homo sapiens, OVCAR-8, 48 h
[20] = system: HCT-15; assay: Anticancer activity against human HCT15 cells assessed cell growth at 10 uM after 48 hrs by sulforhodamine B assay relative to control
[21] = system: BT-549; assay: Anticancer activity against human BT549 cells after 48 hrs by sulforhodamine B assay; conditions: Homo sapiens, BT-549, 48 h
[22] = system: HCT-116; assay: Anticancer activity against human HCT116 cells after 48 hrs by sulforhodamine B assay; conditions: Homo sapiens, HCT-116, 48 h
[23] = system: MDA-MB-468; assay: Anticancer activity against human MDA-MB-468 cells after 48 hrs by sulforhodamine B assay; conditions: Homo sapiens, MDA-MB-468, 48 h
[24] = system: MCF7; assay: Anticancer activity against human MCF7 cells after 48 hrs by sulforhodamine B assay; conditions: Homo sapiens, MCF7, 48 h
[25] = system: HOP-92; assay: Anticancer activity against human HOP92 cells assessed cell growth at 10 uM after 48 hrs by sulforhodamine B assay relative to control
[26] = system: NCI-H322M; assay: Anticancer activity against human NCI-H322M cells after 48 hrs by sulforhodamine B assay; conditions: Homo sapiens, NCI-H322M, 48 h
[27] = system: UO-31; assay: Anticancer activity against human UO31 cells after 48 hrs by sulforhodamine B assay; conditions: Homo sapiens, UO-31, 48 h
[28] = system: SR; assay: Anticancer activity against human SR cells after 48 hrs by sulforhodamine B assay; conditions: Homo sapiens, SR, 48 h
[29] = system: MDA-MB-231; assay: Anticancer activity against human MDA-MB-231 cells assessed cell growth at 10 uM after 48 hrs by sulforhodamine B assay relative to control
[30] = system: OVCAR-3; assay: Anticancer activity against human OVCAR-3 cells after 48 hrs by sulforhodamine B assay; conditions: Homo sapiens, OVCAR-3, 48 h
[31] = system: UACC-257; assay: Anticancer activity against human UACC257 cells after 48 hrs by sulforhodamine B assay; conditions: Homo sapiens, UACC-257, 48 h
[32] = system: UACC-62; assay: Anticancer activity against human UACC62 cells after 48 hrs by sulforhodamine B assay; conditions: Homo sapiens, UACC-62, 48 h
[33] = system: HOP-62; assay: Anticancer activity against human HOP62 cells after 48 hrs by sulforhodamine B assay; conditions: Homo sapiens, HOP-62, 48 h
[34] = system: ACHN; assay: Anticancer activity against human ACHN cells assessed cell growth at 10 uM after 48 hrs by sulforhodamine B assay relative to control
[35] = system: K562; assay: Anticancer activity against human K562 cells assessed cell growth at 10 uM after 48 hrs by sulforhodamine B assay relative to control
[36] = system: CAKI-1; assay: Anticancer activity against human Caki1 cells after 48 hrs by sulforhodamine B assay; conditions: Homo sapiens, CAKI-1, 48 h
[37] = system: TK-10; assay: Anticancer activity against human TK10 cells after 48 hrs by sulforhodamine B assay; conditions: Homo sapiens, TK-10, 48 h
[38] = system: NCI-H522; assay: Anticancer activity against human NCI-H522 cells after 48 hrs by sulforhodamine B assay; conditions: Homo sapiens, NCI-H522, 48 h
[39] = system: KM12; assay: Anticancer activity against human KM12 cells after 48 hrs by sulforhodamine B assay; conditions: Homo sapiens, KM12, 48 h
[40] = system: OVCAR-5; assay: Anticancer activity against human OVCAR5 cells after 48 hrs by sulforhodamine B assay; conditions: Homo sapiens, OVCAR-5, 48 h
[41] = system: HCT-15; assay: Anticancer activity against human HCT15 cells after 48 hrs by sulforhodamine B assay; conditions: Homo sapiens, HCT-15, 48 h
[42] = read-out: LC50 (the source's name)

CCCCCCCCCCCCCCCCCC[n+]1ccn(C)c1.O=S(=O)([N-]S(=O)(=O)C(F)(F)F)C(F)(F)F
GI50 [1]: 1.04 µM
CC50 [1, 42]: 5.93 µM
GI50 [2]: 0.537 µM
LC50 (50% lethal concentration) [2]: 6.84 µM
Activity [3]: -74.13%
GI50 [4]: 1.24 µM
LC50 [4]: 9.41 µM
Activity [5]: -47.9%
Activity [6]: -61.74%
Activity [7]: -51.32%
GI50 [8]: 0.35 µM
CC50 [8, 42]: > 100 µM
Activity [9]: -72.43%
Activity [10]: -59.68%
Activity [11]: -45.26%
GI50 [12]: 0.351 µM
CC50 [12, 42]: > 100 µM
GI50 [13]: 0.952 µM
LC50 (50% lethal concentration) [13]: > 100 µM
GI50 [14]: 1.18 µM
LC50 (concentration killing 50% of cells) [14]: > 100 µM
GI50 [15]: 0.35 µM
CC50 [15, 42]: 4.02 µM
Activity [16]: -74.14%
GI50 [17]: 0.406 µM
CC50 [17, 42]: 5.24 µM
Activity [18]: -51.69%
GI50 [19]: 0.913 µM
LC50 [19]: > 100 µM
Activity [20]: -54.83%
GI50 [21]: 1.06 µM
CC50 [21, 42]: 5.95 µM
GI50 [22]: 0.651 µM
CC50 [22, 42]: > 100 µM
GI50 [23]: 0.196 µM
LC50 [23]: > 100 µM
GI50 [24]: 1 µM
LC50 (50% cell kill) [24]: 5.52 µM
Activity [25]: -66.2%
GI50 [26]: 1.52 µM
LC50 [26]: 6.4 µM
GI50 [27]: 1.48 µM
LC50 [27]: > 100 µM
GI50 [28]: 1.24 µM
CC50 [28, 42]: > 100 µM
Activity [29]: -80.16%
GI50 [30]: 0.442 µM
LC50 (50% lethal concentration) [30]: 4.71 µM
GI50 [31]: 1.53 µM
LC50 [31]: > 100 µM
GI50 [32]: 1.04 µM
LC50 [32]: 5.1 µM
GI50 [33]: 1.11 µM
CC50 [33, 42]: 9.79 µM
Activity [34]: -43.53%
Activity [35]: 17.9%
GI50 [36]: 0.263 µM
LC50 [36]: 6.72 µM
GI50 [37]: 0.407 µM
LC50 [37]: 4.43 µM
GI50 [38]: 1.02 µM
LC50 [38]: > 100 µM
GI50 [39]: 0.454 µM
CC50 [39, 42]: 5.46 µM
GI50 [40]: 0.909 µM
CC50 [40, 42]: 9.14 µM
GI50 [41]: 1.07 µM
CC50 [41, 42]: 5.94 µM
